Results as given in US20180371044A1, “PEPTIDOMIMETIC MACROCYCLES” (Aileron Therapeutics, Inc., priority 2015, published 2018).
Where a SMILES comes first, the peptide text is derived from it. Bridges are numbered along the chain shown (N, C = ends). [ ]: non-standard residue; d: D form. NMeY = CN[C@@H](Cc1ccc(O)cc1)C(=O)O; R8 = C=CCCCCCC[C@@](C)(N)C(=O)O; S5 = C=CCCC[C@](C)(N)C(=O)O; Nle = CCCC[C@H](N)C(=O)O

How the values were obtained:
[1] = Plasma compatibility; assay type: physicochemical
Description: The plasma compatibility of exemplary peptidomimetic macrocycles was also determined. Peptidomimetic macrocycles with a plasma compatability value (PC) that is greater than 0.1 were determined as being plasma compatible.

[2] = Plasma PK/PD study in rats; assay type: in vivo, rat; conditions: male Sprague-Dawley rats; for MRT / clearance / Vd / half-life / AUC(0-inf): rat, 3 mg/kg; for clearance: read-out: Clp (converted); for Vd: read-out: Vdss; for half-life: read-out: t ½ (converted); for AUC(0-inf): route not given
Description: Five peptidomimetic macrocycles of the invention, as well as sermorelin, were studied to determine pharmacokinetic and pharmacodynamic parameters in rats. Male Sprague-Dawley rats (300 g, non-fasted, cannulated) were used. The study had three arms: IV administration, SC administration, and SC administration (vehicle control). For experiments using sermorelin, a dose level of 3 mg/kg IV/SC bolus was used (dose volume of […] dose and dose concentration of 1 mg/mL). The vehicle used was: 10 wt % N, N-Dimethylacetamide, 10 wt % DMSO, 2 wt % Solutol HS 15 in water for injection containing 45 mg/mL (4.5 wt %) Mannitol and 25 mM (0.38 wt %) Histidine (pH 7.5; 320 mOsm/kg). The peptide was first dissolved at high concentration in DMA and DMSO before a second dilution in Solutol vehicle.
For experiments using peptidomimetic macrocycles, 0.1 mL of DMA and 0.1 mL of DMSO were used to combine with each mg of macrocycle (˜4.3-4.5 mg of macrocycle used in each experiment). Sonication was used to ensure complete solubilization. 0.8 mL of Solutol vehicle was used for each mg of macrocycle in DMA/DMSO. The solutions were mixed gently with pipet or light vortexing. Fresh vials were used for each day of dosing, and macrocycles were stored solid at −20° C. prior to formulation.
For each study arm, 2 rats were bled (350 μL) at specific time points (5 min, 15 min, 30 min, 1 h, 2 h, 4 h, 8 h, 24 h, and 48 h) and a 150 μL bleed was performed just before dosing. Plasma was prepared into K2EDTA tubes by centrifuging for 20 minutes at 4° C. at 2000G maximum 30 minutes after collection. From each 350 μL bleed, 120 μL were transferred to one tube for PK studies and 50 μL to another tube for PD studies and frozen immediately. From the 150 μL bleed, 70 μL were transferred to one tube for PD studies and frozen immediately.

[3] = biological target: T1, human GHRH receptor (hGHRHR) (Homo sapiens, UniProt Q02643); assay: GHRHR agonism measured by cAMP (HTRF) in human 293 cells expressing hGHRHR; assay type: cell-based; conditions: 30 min at RT;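 further: receptor expressed transiently or stably, cells stimulated in serum-free medium, EC50 from a non-linear dose-response fit, maximal response defined by reference GHRH stimulation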
T1 construct: expressed in transfected cells; host or cells: Human 293 cells
T1 sequence (Q02643 23-423): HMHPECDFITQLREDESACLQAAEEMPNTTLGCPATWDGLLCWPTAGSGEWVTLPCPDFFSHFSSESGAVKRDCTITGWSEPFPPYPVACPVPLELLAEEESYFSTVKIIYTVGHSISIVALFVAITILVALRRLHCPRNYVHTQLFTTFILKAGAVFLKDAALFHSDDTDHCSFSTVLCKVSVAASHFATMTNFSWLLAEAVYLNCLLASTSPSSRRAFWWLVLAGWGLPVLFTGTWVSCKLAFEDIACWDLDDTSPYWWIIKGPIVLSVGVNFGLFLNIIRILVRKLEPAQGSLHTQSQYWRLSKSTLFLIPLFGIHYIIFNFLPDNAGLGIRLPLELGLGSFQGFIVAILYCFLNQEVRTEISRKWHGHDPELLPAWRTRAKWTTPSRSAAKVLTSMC

| Plasma Compatability [1] | AUC Ext (%) [2] | MRT [2] | clearance [2] | Vd [2] | half-life [2] | AUC(0-inf) [2] | EC50 [3] | SMILES |
| --- | --- | --- | --- | --- | --- | --- | --- | --- |
| 1.6 mg/mL |  |  |  |  |  |  |  | CCCC[C@H](NC(=O)[C@@H](NC(=O)[C@H](CC(=O)O)NC(=O)[C@H](CCC(N)=O)NC(=O)[C@H](CC(C)C)NC(=O)[C@H](C)NC(=O)[C@H](CCCCN)NC(=O)[C@H](CCCNC(=N)N)NC(=O)[C@H](C)NC(=O)[C@H](CO)NC(=O)[C@]1(C)CCCC=CCCC[C@](C)(NC(=O)[C@H](CCCCN)NC(=O)[C@H](CCCNC(=N)N)NC(=O)[C@H](Cc2ccc(O)cc2)NC(=O)[C@H](CO)NC(=O)[C@H](CCC(N)=O)NC(=O)[C@@H](NC(=O)[C@H](Cc2ccccc2)NC(=O)[C@@H](NC(=O)[C@H](C)NC(=O)[C@H](CC(=O)O)NC(=O)[C@@H](C)NC(=O)[C@@H](N)Cc2ccc(O)cc2)[C@@H](C)CC)[C@@H](C)O)C(=O)N[C@@H](CC(C)C)C(=O)N[C@@H](C)C(=O)N[C@@H](CCC(N)=O)C(=O)N1)[C@@H](C)CC)C(=O)N[C@@H](CO)C(=O)N[C@@H](CCCNC(=N)N)C(N)=O (single isomer, unassigned) [SP-107] |
| 1.6 mg/mL |  |  |  |  |  |  |  | CCCC[C@H](NC(=O)[C@@H](NC(=O)[C@H](CC(=O)O)NC(=O)[C@H](CCC(N)=O)NC(=O)[C@H](CC(C)C)NC(=O)[C@H](C)NC(=O)[C@H](CCCCN)NC(=O)[C@H](CCCNC(=N)N)NC(=O)[C@H](C)NC(=O)[C@H](CO)NC(=O)[C@]1(C)CCCC=CCCC[C@](C)(NC(=O)[C@H](CCCCN)NC(=O)[C@H](CCCNC(=N)N)NC(=O)[C@H](Cc2ccc(O)cc2)NC(=O)[C@H](CO)NC(=O)[C@H](CCC(N)=O)NC(=O)[C@@H](NC(=O)[C@H](Cc2ccccc2)NC(=O)[C@@H](NC(=O)[C@H](C)NC(=O)[C@H](CC(=O)O)NC(=O)[C@@H](C)NC(=O)[C@@H](N)Cc2ccc(O)cc2)[C@@H](C)CC)[C@@H](C)O)C(=O)N[C@@H](CC(C)C)C(=O)N[C@@H](C)C(=O)N[C@@H](CCC(N)=O)C(=O)N1)[C@@H](C)CC)C(=O)N[C@@H](CO)C(=O)N[C@@H](CCCNC(=N)N)C(N)=O (single isomer, unassigned) [SP-108] |
|  | 16.3% | 3.7 h | 2.13 mL/min/kg | 0.474 L/kg | 1240 min | 23500 ng·h/mL | 25 to 50 nM | CCCC[C@H](NC(=O)[C@@H](NC(=O)[C@H](CC(=O)O)NC(=O)[C@H](CCC(N)=O)NC(=O)[C@H](CC(C)C)NC(=O)[C@H](C)NC(=O)[C@H](CCCCN)NC(=O)[C@H](CCCNC(=N)N)NC(=O)[C@H](C)NC(=O)[C@H](CO)NC(=O)[C@H](CC(C)C)NC(=O)[C@H](CCC(N)=O)NC(=O)[C@H](C)NC(=O)[C@H](CC(C)C)NC(=O)[C@@H](NC(=O)[C@H](CCCCN)NC(=O)[C@H](CCCNC(=N)N)NC(=O)[C@H](Cc1ccc(O)cc1)NC(=O)[C@H](CO)NC(=O)[C@H](C)NC(=O)[C@@H](NC(=O)[C@H](Cc1ccccc1)NC(=O)[C@@H](NC(=O)[C@]1(C)CCCC=CCCC[C@](C)(N)C(=O)N[C@@H](Cc2ccc(O)cc2)C(=O)N[C@@H](C)C(=O)N[C@@H](CC(=O)O)C(=O)N1)[C@@H](C)CC)[C@@H](C)O)C(C)C)[C@@H](C)CC)C(=O)N[C@@H](CO)C(=O)N[C@@H](CCCNC(=N)N)C(N)=O [SP-6] (H-[S5]YAD[S5]IFTASYRKVLAQLSARKALQDI[Nle]SR-NH2; staple 1-5) |
|  | 9.4% | 5.3 h | 1.65 mL/min/kg | 0.524 L/kg | 606 min | 30500 ng·h/mL |  | CCCC[C@@H]1NC(=O)[C@H]([C@@H](C)CC)NC(=O)[C@H](CC(=O)O)NC(=O)[C@@](C)(NC(=O)[C@H](CC(C)C)NC(=O)[C@H](C)NC(=O)[C@H](CCCCN)NC(=O)[C@H](CCCNC(=N)N)NC(=O)[C@H](C)NC(=O)[C@H](CO)NC(=O)[C@H](CC(C)C)NC(=O)[C@H](CCC(N)=O)NC(=O)[C@H](C)NC(=O)[C@H](CC(C)C)NC(=O)[C@@H](NC(=O)[C@H](CCCCN)NC(=O)[C@H](CCCNC(=N)N)NC(=O)[C@H](Cc2ccc(O)cc2)NC(=O)[C@H](CO)NC(=O)[C@H](C)NC(=O)[C@@H](NC(=O)[C@H](Cc2ccccc2)NC(=O)[C@@H](NC(=O)[C@H](C)NC(=O)[C@H](CC(=O)O)NC(=O)[C@H](C)NC(=O)[C@H](Cc2ccc(O)cc2)NC)[C@@H](C)CC)[C@@H](C)O)C(C)C)CCCC=CCCC[C@@](C)(C(=O)N[C@@H](CCCNC(=N)N)C(N)=O)NC1=O [SP-21] (H-[NMeY]ADAIFTASYRKVLAQLSARKAL[S5]DI[Nle][S5]R-NH2; staple 24-28; N-terminus and C-terminus assumed) |
|  | 3.0% | 2.3 h | 1.35 mL/min/kg | 0.19 L/kg | 582 min | 37000 ng·h/mL |  | CCCC[C@@H]1NC(=O)[C@H]([C@@H](C)CC)NC(=O)[C@H](CC(=O)O)NC(=O)[C@H](CCC(N)=O)NC(=O)[C@H](CC(C)C)NC(=O)[C@H](C)NC(=O)[C@](C)(NC(=O)[C@H](CCCNC(=N)N)NC(=O)[C@H](C)NC(=O)[C@H](CO)NC(=O)[C@H](CC(C)C)NC(=O)[C@H](CCC(N)=O)NC(=O)[C@H](C)NC(=O)[C@H](CC(C)C)NC(=O)[C@@H](NC(=O)[C@H](CCCCN)NC(=O)[C@H](CCCNC(=N)N)NC(=O)[C@H](Cc2ccc(O)cc2)NC(=O)[C@H](CO)NC(=O)[C@H](C)NC(=O)[C@@H](NC(=O)[C@H](Cc2ccccc2)NC(=O)[C@@H](NC(=O)[C@H](C)NC(=O)[C@H](CC(=O)O)NC(=O)[C@H](C)NC(=O)[C@H](Cc2ccc(O)cc2)NC)[C@@H](C)CC)[C@@H](C)O)C(C)C)CCCCCCC=CCCC[C@@](C)(C(=O)N[C@@H](CCCNC(=N)N)C(N)=O)NC1=O [SP-32] (H-[NMeY]ADAIFTASYRKVLAQLSAR[R8]ALQDI[Nle][S5]R-NH2; staple 21-28; N-terminus and C-terminus assumed) |
| 1.2 mg/mL |  |  |  |  |  |  |  | CCCC[C@H](NC(=O)[C@@H](NC(=O)[C@H](CC(=O)O)NC(=O)[C@H](CCC(N)=O)NC(=O)[C@H](CC(C)C)NC(=O)[C@H](C)NC(=O)[C@H](CCCCN)NC(=O)[C@H](CCCNC(=N)N)NC(=O)[C@H](C)NC(=O)[C@H](CO)NC(=O)[C@]1(C)CCCC=CCCC[C@](C)(NC(=O)[C@H](CCCCN)NC(=O)[C@H](CCCNC(=N)N)NC(=O)[C@H](Cc2ccc(O)cc2)NC(=O)[C@H](CO)NC(=O)[C@H](CCC(N)=O)NC(=O)[C@@H](NC(=O)[C@H](Cc2ccccc2)NC(=O)[C@@H](NC(=O)[C@H](C)NC(=O)[C@H](CC(=O)O)NC(=O)[C@@H](C)NC(=O)[C@@H](N)Cc2ccc(O)cc2)[C@@H](C)CC)[C@@H](C)O)C(=O)N[C@@H](CC(C)C)C(=O)N[C@@H](C)C(=O)N[C@@H](C)C(=O)N1)[C@@H](C)CC)C(=O)N[C@@H](CO)C(=O)N[C@@H](CCCNC(=N)N)C(N)=O [SP-104] (H-Y[dA]DAIFTQSYRK[S5]LAA[S5]SARKALQDI[Nle]SR-NH2; staple 13-17) |
| 1.2 mg/mL |  |  |  |  |  |  |  | CCCC[C@H](NC(=O)[C@@H](NC(=O)[C@H](CC(=O)O)NC(=O)[C@H](CCC(N)=O)NC(=O)[C@H](CC(C)C)NC(=O)[C@H](C)NC(=O)[C@H](CCCCN)NC(=O)[C@H](CCCNC(=N)N)NC(=O)[C@H](C)NC(=O)[C@H](CO)NC(=O)[C@]1(C)CCCC=CCCC[C@](C)(NC(=O)[C@H](CCCCN)NC(=O)[C@H](CCCNC(=N)N)NC(=O)[C@H](Cc2ccc(O)cc2)NC(=O)[C@H](CO)NC(=O)[C@H](CCC(N)=O)NC(=O)[C@@H](NC(=O)[C@H](Cc2ccccc2)NC(=O)[C@@H](NC(=O)[C@H](C)NC(=O)[C@H](CC(=O)O)NC(=O)[C@@H](C)NC(=O)[C@@H](N)Cc2ccc(O)cc2)[C@@H](C)CC)[C@@H](C)O)C(=O)N[C@@H](CC(C)C)C(=O)N[C@@H](C)C(=O)N[C@@H](CCC(=O)O)C(=O)N1)[C@@H](C)CC)C(=O)N[C@@H](CO)C(=O)N[C@@H](CCCNC(=N)N)C(N)=O [SP-105] (H-Y[dA]DAIFTQSYRK[S5]LAE[S5]SARKALQDI[Nle]SR-NH2; staple 13-17) |
